US10004711B2, “Methods and compositions comprising 10-hydroxy-2-decenoic acid” (DSM IP ASSETS B.V., priority 2014, dated 2018)

Legend:
[1] = Body weight of aged male rats fed QBA (Example 7); assay type: in vivo, rat
Method: Aged male rats were fed 10-Hydroxy-2-decenoic acid (QBA) for approximately 7 months from 11-months to 18-months of age and the weight of rats was recorded.

[2] = Townsend et al. 1960; Izuta et al. 2009; cited from earlier work
[3] = tested on: Human peripheral blood mononuclear cells (PBMC); assay: Proliferation of PBMC after αCD3/CD28 stimulation; assay type: cell-based; conditions: for Cell Numbers: 72 h
Method: Human peripheral blood mononuclear cells (PBMC) were pre-treated with 10-Hydroxy-2-decenoic acid (QBA) for 1 hour prior to stimulation with αCD3/CD28. After 72 hours of incubation, cell number was assessed by Cell Titer Glow.

[4] = tested on: Adult female Long-Evans rats; assay: Ovulatory cycle status of female rats with abnormal ovulatory cycles; assay type: in vivo, rat; conditions: six weeks, count of animals
From the text: Adult female Long-Evans rats (3 months-old) with abnormal ovulatory cycles were fed diets containing 10-Hydroxy-2-decenoic acid (QBA) or no QBA for six (6) weeks. Female rats having normal ovulatory cycle were used as positive controls and were not fed QBA.

stem cells = conditions: Hattori et al. 2009; cited from earlier work

O=C(O)C=CCCCCCCCO [QBA, 10-Hydroxy-2-decenoic acid]
Avg Wt ([1]; QBA 0.4 mg/kg/day, study day 0): 509.6 g | Avg Wt ([1]; QBA 0.4 mg/kg/day, study day 7): 516.1 g | Avg Wt ([1]; QBA 0.4 mg/kg/day, study day 21): 524.4 g | Avg Wt ([1]; QBA 0.4 mg/kg/day, study day 29): 508.6 g | Avg Wt ([1]; QBA 0.4 mg/kg/day, study day 36): 523.1 g | Avg Wt ([1]; QBA 0.4 mg/kg/day, study day 50): 554.6 g | Avg Wt ([1]; QBA 0.4 mg/kg/day, study day 57): 559.5 g | Avg Wt ([1]; QBA 0.4 mg/kg/day, study day 64): 566.7 g | Avg Wt ([1]; QBA 0.4 mg/kg/day, study day 71): 568.6 g | Avg Wt ([1]; QBA 0.4 mg/kg/day, study day 78): 570.3 g | Avg Wt ([1]; QBA 0.4 mg/kg/day, study day 85): 577.3 g | Avg Wt ([1]; QBA 0.4 mg/kg/day, study day 92): 581.3 g | Avg Wt ([1]; QBA 0.4 mg/kg/day, study day 99): 583.8 g | Avg Wt ([1]; QBA 0.4 mg/kg/day, study day 106): 592.7 g | Avg Wt ([1]; QBA 0.4 mg/kg/day, study day 113): 593.2 g | Avg Wt ([1]; QBA 0.4 mg/kg/day, study day 120): 596.8 g | Avg Wt ([1]; QBA 0.4 mg/kg/day, study day 127): 590.7 g | Avg Wt ([1]; QBA 0.4 mg/kg/day, study day 141): 589.8 g | Avg Wt ([1]; QBA 0.4 mg/kg/day, study day 148): 578.0 g | Avg Wt ([1]; QBA 0.4 mg/kg/day, study day 155): 585.4 g | Avg Wt ([1]; QBA 0.4 mg/kg/day, study day 162): 593.6 g | Avg Wt ([1]; QBA 0.4 mg/kg/day, study day 169): 601.7 g | Avg Wt ([1]; QBA 0.4 mg/kg/day, study day 176): 573.6 g | Avg Wt ([1]; QBA 0.4 mg/kg/day, study day 182): 588.7 g | Avg Wt ([1]; QBA 0.4 mg/kg/day, study day 190): 584.1 g | Avg Wt ([1]; QBA 0.4 mg/kg/day, study day 197): 582.6 g | Avg Wt ([1]; QBA 0.4 mg/kg/day, study day 204): 580.1 g | Avg Wt ([1]; QBA 0.4 mg/kg/day, study day 211): 575.8 g | Avg Wt ([1]; QBA 0.4 mg/kg/day, study day 217): 582.6 g | Avg Wt ([1]; QBA 4 mg/kg/day, study day 0): 509.8 g | Avg Wt ([1]; QBA 4 mg/kg/day, study day 7): 518.9 g | Avg Wt ([1]; QBA 4 mg/kg/day, study day 21): 527.4 g | Avg Wt ([1]; QBA 4 mg/kg/day, study day 29): 511.6 g | Avg Wt ([1]; QBA 4 mg/kg/day, study day 36): 526.8 g | Avg Wt ([1]; QBA 4 mg/kg/day, study day 50): 567.3 g | Avg Wt ([1]; QBA 4 mg/kg/day, study day 57): 571.0 g | Avg Wt ([1]; QBA 4 mg/kg/day, study day 64): 576.4 g | Avg Wt ([1]; QBA 4 mg/kg/day, study day 71): 576.2 g | Avg Wt ([1]; QBA 4 mg/kg/day, study day 78): 584.8 g | Avg Wt ([1]; QBA 4 mg/kg/day, study day 85): 587.5 g | Avg Wt ([1]; QBA 4 mg/kg/day, study day 92): 584.3 g | Avg Wt ([1]; QBA 4 mg/kg/day, study day 99): 595.4 g | Avg Wt ([1]; QBA 4 mg/kg/day, study day 106): 592.5 g | Avg Wt ([1]; QBA 4 mg/kg/day, study day 113): 594.7 g | Avg Wt ([1]; QBA 4 mg/kg/day, study day 120): 592.2 g | Avg Wt ([1]; QBA 4 mg/kg/day, study day 127): 592.4 g | Avg Wt ([1]; QBA 4 mg/kg/day, study day 141): 593.1 g | Avg Wt ([1]; QBA 4 mg/kg/day, study day 148): 588.0 g | Avg Wt ([1]; QBA 4 mg/kg/day, study day 155): 587.8 g | Avg Wt ([1]; QBA 4 mg/kg/day, study day 162): 589.5 g | Avg Wt ([1]; QBA 4 mg/kg/day, study day 169): 594.0 g | Avg Wt ([1]; QBA 4 mg/kg/day, study day 176): 601.7 g | Avg Wt ([1]; QBA 4 mg/kg/day, study day 182): 588.0 g | Avg Wt ([1]; QBA 4 mg/kg/day, study day 190): 597.8 g | Avg Wt ([1]; QBA 4 mg/kg/day, study day 197): 597.7 g | Avg Wt ([1]; QBA 4 mg/kg/day, study day 204): 601.8 g | Avg Wt ([1]; QBA 4 mg/kg/day, study day 211): 596.6 g | Avg Wt ([1]; QBA 4 mg/kg/day, study day 217): 595.9 g | Avg Wt ([1]; QBA 12 mg/kg/day, study day 0): 508.7 g | Avg Wt ([1]; QBA 12 mg/kg/day, study day 7): 508.8 g | Avg Wt ([1]; QBA 12 mg/kg/day, study day 21): 508.0 g | Avg Wt ([1]; QBA 12 mg/kg/day, study day 29): 490.2 g | Avg Wt ([1]; QBA 12 mg/kg/day, study day 36): 511.7 g | Avg Wt ([1]; QBA 12 mg/kg/day, study day 50): 554.3 g | Avg Wt ([1]; QBA 12 mg/kg/day, study day 57): 551.4 g | Avg Wt ([1]; QBA 12 mg/kg/day, study day 64): 567.6 g | Avg Wt ([1]; QBA 12 mg/kg/day, study day 71): 574.1 g | Avg Wt ([1]; QBA 12 mg/kg/day, study day 78): 573.1 g | Avg Wt ([1]; QBA 12 mg/kg/day, study day 85): 574.6 g | Avg Wt ([1]; QBA 12 mg/kg/day, study day 92): 581.2 g | Avg Wt ([1]; QBA 12 mg/kg/day, study day 99): 584.5 g | Avg Wt ([1]; QBA 12 mg/kg/day, study day 106): 591.2 g | Avg Wt ([1]; QBA 12 mg/kg/day, study day 113): 591.2 g | Avg Wt ([1]; QBA 12 mg/kg/day, study day 120): 586.1 g | Avg Wt ([1]; QBA 12 mg/kg/day, study day 127): 593.3 g | Avg Wt ([1]; QBA 12 mg/kg/day, study day 141): 595.8 g | Avg Wt ([1]; QBA 12 mg/kg/day, study day 148): 592.9 g | Avg Wt ([1]; QBA 12 mg/kg/day, study day 155): 591.1 g | Avg Wt ([1]; QBA 12 mg/kg/day, study day 162): 580.5 g | Avg Wt ([1]; QBA 12 mg/kg/day, study day 169): 588.2 g | Avg Wt ([1]; QBA 12 mg/kg/day, study day 176): 593.0 g | Avg Wt ([1]; QBA 12 mg/kg/day, study day 182): 590.6 g | Avg Wt ([1]; QBA 12 mg/kg/day, study day 190): 599.5 g | Avg Wt ([1]; QBA 12 mg/kg/day, study day 197): 600.8 g | Avg Wt ([1]; QBA 12 mg/kg/day, study day 204): 595.5 g | Avg Wt ([1]; QBA 12 mg/kg/day, study day 211): 599.6 g | Avg Wt ([1]; QBA 12 mg/kg/day, study day 217): 593.7 g | Avg Wt ([1]; QBA 24 mg/kg/day, study day 0): 516.8 g | Avg Wt ([1]; QBA 24 mg/kg/day, study day 7): 510.9 g | Avg Wt ([1]; QBA 24 mg/kg/day, study day 21): 530.8 g | Avg Wt ([1]; QBA 24 mg/kg/day, study day 29): 512.3 g | Avg Wt ([1]; QBA 24 mg/kg/day, study day 36): 546.4 g | Avg Wt ([1]; QBA 24 mg/kg/day, study day 50): 574.6 g | Avg Wt ([1]; QBA 24 mg/kg/day, study day 57): 586.8 g | Avg Wt ([1]; QBA 24 mg/kg/day, study day 64): 594.2 g | Avg Wt ([1]; QBA 24 mg/kg/day, study day 71): 598.5 g | Avg Wt ([1]; QBA 24 mg/kg/day, study day 78): 600.7 g | Avg Wt ([1]; QBA 24 mg/kg/day, study day 85): 608.8 g | Avg Wt ([1]; QBA 24 mg/kg/day, study day 92): 614.9 g | Avg Wt ([1]; QBA 24 mg/kg/day, study day 99): 618.1 g | Avg Wt ([1]; QBA 24 mg/kg/day, study day 106): 626.7 g | Avg Wt ([1]; QBA 24 mg/kg/day, study day 113): 628.4 g | Avg Wt ([1]; QBA 24 mg/kg/day, study day 120): 628.6 g | Avg Wt ([1]; QBA 24 mg/kg/day, study day 127): 630.3 g | Avg Wt ([1]; QBA 24 mg/kg/day, study day 141): 632.0 g | Avg Wt ([1]; QBA 24 mg/kg/day, study day 148): 635.4 g | Avg Wt ([1]; QBA 24 mg/kg/day, study day 155): 636.3 g | Avg Wt ([1]; QBA 24 mg/kg/day, study day 162): 637.3 g | Avg Wt ([1]; QBA 24 mg/kg/day, study day 169): 628.4 g | Avg Wt ([1]; QBA 24 mg/kg/day, study day 176): 643.9 g | Avg Wt ([1]; QBA 24 mg/kg/day, study day 182): 646.0 g | Avg Wt ([1]; QBA 24 mg/kg/day, study day 190): 649.5 g | Avg Wt ([1]; QBA 24 mg/kg/day, study day 197): 653.3 g | Avg Wt ([1]; QBA 24 mg/kg/day, study day 204): 644.4 g | Avg Wt ([1]; QBA 24 mg/kg/day, study day 211): 647.8 g | Avg Wt ([1]; QBA 24 mg/kg/day, study day 217): 650.6 g | body weight versus control, repeated measures ANOVA ([1]; all doses versus 0 mg/kg/day QBA): small but significant increase | body weight maintenance in aging male rats ([1]; summary of Table 13): helped to maintain healthy body weight | in vitro antitumor activity [2]: antitumor activity | Cell Numbers ([3]; QBA 50 μM 1 h before αCD3/CD28): 517020 | Cell Numbers ([3]; QBA 100 μM 1 h before αCD3/CD28): 472678 | Cell Numbers ([3]; QBA 500 μM 1 h before αCD3/CD28): 442008 | Cell Numbers ([3]; QBA 1000 μM 1 h before αCD3/CD28): 344026 | Cell Numbers ([3]; QBA 2500 μM 1 h before αCD3/CD28): 104291 | Cell Numbers ([3]; QBA 5000 μM 1 h before αCD3/CD28): 1601 | concentrations that reduced the proliferation of human immune cells ([3]; summary of Table 11): greater than 500 μM | Ovulatory Cycle Status Abnormal ([4]; QBA 0.4 mg/kg/day): 7 | Ovulatory Cycle Status Normal ([4]; QBA 0.4 mg/kg/day): 8 | Ovulatory Cycle Status Abnormal ([4]; QBA 4 mg/kg/day): 9 | Ovulatory Cycle Status Normal ([4]; QBA 4 mg/kg/day): 6 | Ovulatory Cycle Status Abnormal ([4]; QBA 12 mg/kg/day): 4 | Ovulatory Cycle Status Normal ([4]; QBA 12 mg/kg/day): 11 | Ovulatory Cycle Status Abnormal ([4]; QBA 24 mg/kg/day): 12 | Ovulatory Cycle Status Normal ([4]; QBA 24 mg/kg/day): 3 | neurogenesis and gliogenesis from stem cells (stem cells): stimulation of neurogenesis from stem cells while inhibiting gliogenesis
